Source: patent US4210636A, “Antisecretory polypeptides” (American Home Products Corporation, priority 1978, dated 1980)
Bridge positions count the residues as written; N and C are the ends. Square brackets hold non-standard residues; d marks the D form. Peptide text beside a SMILES is read from it. Mpa = O=C(O)CCS

Tests used:
[1] = test system: gastric secretion (total gastric volume, hydrogen ion secretion, hydrogen ion concentration); assay: Anti-secretory activity in pylorus-ligated (Shay) rat, s.c.; type: in vivo; settings: for hydrogen ion secretion / total gastric volume: at the reported potency dose (IV 26.3 mg/kg; V and VI 4.40 mg/kg); for Antisecretory potency: lowest dose administered at which two of the three parameters (total gastric volume, hydrogen ion secretion, hydrogen ion concentration) were significantly decreased: pylorus-ligated male Charles River rats, 4 hours after ligation
Method: Each of the polypeptides of this invention was tested and found active parenterally (s.c.) in the scientifically recognized, standard test for anti-secretory activity which involves the following procedure in which male Charles River rats weighing 190-260 grams are deprived of food but not water for eighteen hours prior to use. Water is withheld during the actual experiment. The rats are weighed, anesthetized with ether and the pylorus is ligated according to the method of Shay et al., Gastroenterology, 26, 906-913 (1954). Treatment or vehicle control is then administered subcutaneously (s.c.). The rats are housed two per cage and sacrificed with CO2 four hours after ligation. The stomachs are removed, rinsed, and contents emptied into a graduated centrifuge tube. The tubes are centrifuged for twenty minutes at two thousand revolutions per minute and the volume of gastric juice is recorded. Any sample which is obviously contaminated with feces, food or blood is eliminated. An aliquot of each sample is frozen for later analysis of pepsin. The pH is measured and one milliliter of gastric juice is titrated with 0.1 N NaOH to a pH of 7.0-7.4. The data are analyzed by analysis of variance and, using the pooled error variance, t-comparisons are made between the groups.
(§1) The potency of each compound is reported at the end of each example illustrating its production. […] In addition, the maximum dose employed to evaluate control of growth hormone, insulin and glucagon secretion is reported.

growth hormone secretion = assay: In vivo growth hormone secretion test
From the text: as §1

insulin secretion = assay: In vivo insulin secretion test
From the text: as §1

glucagon secretion = assay: In vivo glucagon secretion test
From the text: as §1

gastric acid secretion = settings: dose as high as 2 μm/Kg, s.c.; cited from earlier work

Molecule	hydrogen ion secretion ([1]; pylorus-ligated rat)	total gastric volume ([1]; pylorus-ligated rat)	Antisecretory potency: lowest dose administered at which two of the three parameters (total gastric volume, hydrogen ion secretion, hydrogen ion concentration) were significantly decreased [1] [mg/kg]	Growth hormone secretion not inhibited at highest dose tested (growth hormone secretion) [mg/kg]	Insulin secretion not inhibited at highest dose tested (insulin secretion) [mg/kg]	Glucagon secretion not inhibited at highest dose tested (glucagon secretion) [mg/kg]	pH (gastric juice) ([1]; at 4.40 mg/kg, pylorus-ligated rat)	Dose that effectively inhibits secretion of growth hormone (growth hormone secretion; reference)	Dose that effectively inhibits secretion of insulin (insulin secretion; reference)	Dose that effectively inhibits secretion of glucagon (glucagon secretion; reference)	effect on gastric acid secretion (gastric acid secretion)
C[C@@H](O)[C@@H]1NC(=O)[C@H](Cc2ccccc2)NC(=O)[C@H]([C@@H](C)O)NC(=O)[C@H](CCCCN)NC(=O)[C@H](Cc2c[nH]c3ccccc23)NC(=O)[C@H](Cc2ccccc2)NC(=O)[C@H](Cc2ccccc2)NC(=O)[C@H](CC(N)=O)NC(=O)CCSSC[C@@H](C(=O)O)NC(=O)[C@H](CO)NC1=O [V, β-Mercaptopropionyl-L-asparaginyl-L-phenylalanyl-L-phenylalanyl-L-tryptophyl-L-lysyl-L-threonyl-L-phenylalanyl-L-threonyl-L-seryl-L-cysteine cyclic (1→11) disulfide] ([Mpa]NFFWKTFTSC-OH; disulfide 1-11)	significantly reduced	significantly reduced	4.40	> 1.90	> 1.90	> 1.90	–	–	–	–	–
CSCC[C@@H]1NC(=O)[C@H](Cc2ccccc2)NC(=O)[C@H](CC(N)=O)NC(=O)[C@H](CCCCN)NC(=O)[C@@H](NC(=O)CNC(=O)[C@H](C)N)CSSC[C@@H](C(=O)O)NC(=O)[C@H](CO)NC(=O)[C@H]([C@@H](C)O)NC(=O)[C@H](Cc2ccccc2)NC(=O)[C@H]([C@@H](C)O)NC(=O)[C@H](CCCCN)NC(=O)[C@H](Cc2c[nH]c3ccccc23)NC1=O [VI, L-Alanyl-glycyl-L-cysteinyl-L-lysyl-L-asparaginyl-L-phenylalanyl-L-methionyl-L-tryptophyl-L-lysyl-L-threonyl-L-phenylalanyl-L-threonyl-L-seryl-L-cystein cyclic (3→14) disulfide] (H-AGCKNFMWKTFTSC-OH; disulfide 3-14)	significantly reduced	significantly reduced	4.40	> 1.0	> 1.0	> 1.0	significantly reduced	–	–	–	–
C[C@H](N)C(=O)NCC(=O)N[C@H]1CSSC[C@@H](C(=O)O)NC(=O)[C@H](CO)NC(=O)[C@H]([C@@H](C)O)NC(=O)[C@H](Cc2ccccc2)NC(=O)[C@H]([C@@H](C)O)NC(=O)[C@H](CCCCN)NC(=O)[C@H](Cc2c[nH]c3ccccc23)NC(=O)[C@H](Cc2ccccc2)NC(=O)[C@H](Cc2ccccc2)NC(=O)[C@H](CC(N)=O)NC(=O)[C@H](CCCCN)NC1=O [Somatostatin, reference compound]	–	–	–	–	–	–	–	about 10 micrograms per kilogram	about 10 micrograms per kilogram	about 10 micrograms per kilogram	–
D-Lys^9 -SRIF	–	–	–	–	–	–	–	–	–	–	no appreciable effect
C[C@@H]1NC(=O)[C@H](CCCCN)NC(=O)[C@@H](N)CSSC[C@@H](C(=O)O)NC(=O)[C@H](CO)NC(=O)[C@H]([C@@H](C)O)NC(=O)[C@H](Cc2ccccc2)NC(=O)[C@H]([C@@H](C)O)NC(=O)[C@H](CCCCN)NC(=O)[C@H](Cc2c[nH]c3ccccc23)NC(=O)[C@H](Cc2ccccc2)NC(=O)[C@H](CO)NC1=O [IV, L-Cysteinyl-L-lysyl-L alanyl-L-seryl-L-phenylalanyl-L-tryptophyl-L-lysyl-L-threonyl-L-phenylalanyl-L-threonyl-L-seryl-L-cysteine cyclic (1→12) disulfide] (H-CKASFWKTFTSC-OH; disulfide 1-12)	significantly reduced	significantly reduced	26.3	> 3.10	> 3.10	> 3.10	–	–	–	–	–
